The assay is filed under the species Mus musculus. Nature of the assay: Antiinflammatory activity against croton oil-induced ear swelling in BALB/c mouse after 6 hrs. The assay is classed as functional.

The source of these data is ChEMBL document CHEMBL1144058, “Pikuroside: a novel iridoid from Picrorhiza kurroa” (1999).

In the case of `COc1cc(C(=O)O[C@H]2[C@@H]3C=CO[C@@H](O[C@@H]4O[C@H](CO)[C@@H](O)[C@H](O)[C@H]4O)[C@@H]3[C@@]3(CO)O[C@@H]23)ccc1O` [PICROSIDE II], the Activity stood at 46%.
